According to patent US20100028889A1, “COMPANION DIAGNOSTIC ASSAYS FOR CANCER THERAPY” (ABBOTT LABORATORIES, priority 2006, published 2010):
Read-outs that look alike come from different tables or passages of the source.

Legend:
JVM-13 = assay: cell cytotoxicity EC50, CellTiter Glo, Mantle Cell Lymphoma cell line; assay type: cell-based, human
Description: (§1) The SCLC and leukemia/lymphoma cell lines listed below were obtained from the American Type Culture Collection (Manassas, Va.), Deutsche Sammlung von Mikroorganismen und Zellkulturen (DSMZ, Braunsweig, Germany), or were the generous gift from Dr. Louis Staudt (National Cancer Institute) and were cultured as described in Tse, C., Shoemaker, A. R., Adickes, J., et al., “ABT-263: a potent and orally bioavailable Bcl-2 family inhibitor,” Cancer Res 2008; 68: 3421-3428; and Tahir, S. K., Yang, X., Anderson, M. G., et al., “Influence of Bcl-2 family members on the cellular response of small-cell lung cancer cell lines to ABT-737,” Cancer Res 2007; 67: 1176-1183.
(§2) Cells were treated at 10,000 or 50,000 cells per well for adherent or suspension cells, respectively, in 96-well microtiter plates in the presence of 10% human serum for 48 hours with or without ABT-263, in a humidified chamber with 5% CO2. ABT-263 was synthesized as previously described in Tse, C., Shoemaker, A. R., Adickes, J., et al., “ABT-263: a potent and orally bioavailable Bcl-2 family inhibitor,” Cancer Res 2008; 68: 3421-3428; and Oltersdorf, T., Elmore, S. W., Shoemaker, A. R., et al., “An inhibitor of Bcl-2 family proteins induces regression of solid tumours,” Nature 2005; 435: 677-681, and cell cytotoxicity EC50 values were assessed using CellTiter Glo (Promega, Madison Wis.).

JVM-2 = assay: as above; assay type: cell-based, human
Description: as §1, §2

Mino = assay: as above; assay type: cell-based, human
Description: as §1, §2

HBL-2 = assay: as above; assay type: cell-based, human
Description: as §1, §2

JeKo-1 = assay: as above; assay type: cell-based, human
Description: as §1, §2

SP53 = assay: as above; assay type: cell-based, human
Description: as §1, §2

Granta = assay: as above; assay type: cell-based, human
Description: as §1, §2

DOHH2 = assay: cell cytotoxicity EC50, CellTiter Glo, leukemia/lymphoma cell line; assay type: cell-based, human; settings: DOHH-2
Description: as §1, §2

K562 = assay: as above; assay type: cell-based, human
Description: as §1, §2

RS4; 11 = assay: as above; assay type: cell-based, human
Description: as §1, §2

WSU-NHL = assay: as above; assay type: cell-based, human
Description: as §1, §2

HL60 = assay: as above; assay type: cell-based, human
Description: as §1, §2

U-937 = assay: as above; assay type: cell-based, human
Description: as §1, §2

SuDHL-4 = assay: as above; assay type: cell-based, human
Description: as §1, §2

Pfeiffer = assay: as above; assay type: cell-based, human
Description: as §1, §2

Jurkat = assay: as above; assay type: cell-based, human
Description: as §1, §2

CCRF-CEM = assay: as above; assay type: cell-based, human
Description: as §1, §2

MEG-01 = assay: as above; assay type: cell-based, human
Description: as §1, §2

MV-4-11 = assay: as above; assay type: cell-based, human
Description: as §1, §2

Raji = assay: as above; assay type: cell-based, human
Description: as §1, §2

KG1a = assay: as above; assay type: cell-based, human; settings: KG-1a
Description: as §1, §2

RPMI 8226 = assay: as above; assay type: cell-based, human
Description: as §1, §2

SuPB15 = assay: as above; assay type: cell-based, human
Description: as §1, §2

CEM/C1 = assay: as above; assay type: cell-based, human
Description: as §1, §2

Rs11380 = assay: as above; assay type: cell-based, human
Description: as §1, §2

CCRF-HSB2 = assay: as above; assay type: cell-based, human
Description: as §1, §2

Rec-1 = assay: cell cytotoxicity EC50, CellTiter Glo, Mantle Cell Lymphoma cell line, Rec-1 sub-clone batch listed first; assay type: cell-based, human
Description: as §1, §2

solid tumors = settings: in vivo; cited from earlier work
[1] = 10% human serum, 48 hours, read-out: EC50
[2] = Homo sapiens, read-out: Response Designation

CC1(C)CCC(c2ccc(Cl)cc2)=C(CN2CCN(c3ccc(C(=O)NS(=O)(=O)c4ccc(N[C@H](CCN5CCOCC5)CSc5ccccc5)c(S(=O)(=O)C(F)(F)F)c4)cc3)CC2)C1 [ABT-263, N-(4-(4-((2-(4-chlorophenyl)-5,5-dimethyl-1-cyclohex-1-en-1-yl)methyl)piperazin-1-yl)benzoyl)-4-(((1R)-3-(morpholin-4-yl)-1-((phenylsulfanyl)methyl)propyl)amino)-3-((trifluoromethyl)sulfonyl)benzenesulfonamide]
EC50 (JVM-13; Homo sapiens, JVM13, read-out: Response Designation): > 4.8 µM
EC50 (JVM-13; JVM13, 10% human serum, 48 hours, read-out: EC50): 13 µM
EC50 (JVM-2; [1]): 4.11 µM
EC50 (JVM-2; [2]): ≤ 4.8 µM
EC50 (Mino; Homo sapiens, MINO, read-out: Response Designation): ≤ 4.8 µM
EC50 (Mino; Mino, 10% human serum, 48 hours, read-out: EC50): 0.033 µM
EC50 (HBL-2; HBL2, 10% human serum, 48 hours, read-out: EC50): 0.031 µM
EC50 (HBL-2; Homo sapiens, HBL2, read-out: Response Designation): ≤ 4.8 µM
EC50 (JeKo-1; [1]): 1.74 µM
EC50 (JeKo-1; [2]): ≤ 4.8 µM
EC50 (SP53; [1]): 0.14 µM
EC50 (SP53; [2]): ≤ 4.8 µM
EC50 (Granta; [1]): 0.041 µM
EC50 (Granta; [2]): ≤ 4.8 µM
EC50 (DOHH2; DoHH2, 10% human serum, 48 hours, read-out: EC50): 0.322 µM
EC50 (DOHH2; Homo sapiens, DOHH2, read-out: Response Designation): ≤ 4.8 µM
EC50 (K562; [1]): 12.8 µM
EC50 (K562; [2]): > 4.8 µM
EC50 (RS4; 11; Homo sapiens, RS4;11, read-out: Response Designation): ≤ 4.8 µM
EC50 (RS4; 11; RS4, 11, 10% human serum, 48 hours, read-out: EC50): 0.095 µM
EC50 (WSU-NHL; [1]): 3.55 µM
EC50 (WSU-NHL; [2]): ≤ 4.8 µM
EC50 (HL60; HL-60, 10% human serum, 48 hours, read-out: EC50): 4.84 µM
EC50 (HL60; Homo sapiens, HL-60, read-out: Response Designation): ≤ 4.8 µM
EC50 (U-937; [1]): 33.9 µM
EC50 (U-937; [2]): > 4.8 µM
EC50 (SuDHL-4; Homo sapiens, SU-DHL-4, read-out: Response Designation): ≤ 4.8 µM
EC50 (SuDHL-4; SU-DHL-4, 10% human serum, 48 hours, read-out: EC50): 1.04 µM
EC50 (Pfeiffer; [1]): 8.81 µM
EC50 (Pfeiffer; [2]): > 4.8 µM
EC50 (Jurkat; [1]): 3.35 µM
EC50 (Jurkat; [2]): ≤ 4.8 µM
EC50 (CCRF-CEM; [1]): 0.765 µM
EC50 (CCRF-CEM; [2]): ≤ 4.8 µM
EC50 (MEG-01; Homo sapiens, MEG-01, read-out: Response Designation): > 4.8 µM
EC50 (MEG-01; Meg-01, 10% human serum, 48 hours, read-out: EC50): 6.04 µM
EC50 (MV-4-11; Homo sapiens, MV4-11, read-out: Response Designation): ≤ 4.8 µM
EC50 (MV-4-11; MV4-11, 10% human serum, 48 hours, read-out: EC50): 0.028 µM
EC50 (Raji; [1]): 23.7 µM
EC50 (Raji; [2]): > 4.8 µM
EC50 (KG1a; [2]): ≤ 4.8 µM
EC50 (KG1a; [1]): 0.243 µM
EC50 (RPMI 8226; [1]): 1.5 µM
EC50 (RPMI 8226; [2]): ≤ 4.8 µM
EC50 (SuPB15; Homo sapiens, SUP-B15, read-out: Response Designation): ≤ 4.8 µM
EC50 (SuPB15; SUP-B15, 10% human serum, 48 hours, read-out: EC50): 0.26 µM
EC50 (CEM/C1; [1]): 0.063 µM
EC50 (CEM/C1; [2]): ≤ 4.8 µM
EC50 (Rs11380; [1]): 0.145 µM
EC50 (Rs11380; [2]): ≤ 4.8 µM
EC50 (CCRF-HSB2; CCRF-HSB-2, 10% human serum, 48 hours, read-out: EC50): 1.15 µM
EC50 (CCRF-HSB2; Homo sapiens, CCRF-HSB-2, read-out: Response Designation): ≤ 4.8 µM
EC50 (Rec-1; Homo sapiens, Rec1, read-out: Response Designation): ≤ 4.8 µM
EC50 (Rec-1; Rec1, 10% human serum, 48 hours, read-out: EC50): 0.034 µM

CN(C)CC[C@H](CSc1ccccc1)Nc1ccc(S(=O)(=O)NC(=O)c2ccc(N3CCN(Cc4ccccc4-c4ccc(Cl)cc4)CC3)cc2)cc1[N+](=O)[O-] [ABT-737, N-(4-(4-((4′-chloro(1,1′-biphenyl)-2-yl)methyl)piperazin-1-yl)benzoyl)-4-(((1R)-3-(dimethylamino)-1-((phenylsulfanyl)methyl)propyl)amino)-3-nitrobenzenesulfonamide]
effect on solid tumors (solid tumors): induce regression of solid tumors
